Assay results from patent US9453023B2, “Substituted phenyl cycloalkyl pyrrolidine (piperidine) spirolactams and amides, preparation and therapeutic use thereof” (SANOFI, priority 2010, dated 2016).
Where a name gives a salt, the structure may show the parent alone.

Molecular target: rhesus (Macacca Mulatta) H3 receptor (Macaca mulatta, UniProt Q865E1)
Experiment: Rhesus H3 radioligand binding assay ([3H]-Methylhistamine, WGA SPA)
Set-up: species or system rhesus monkey (Macacca Mulatta)
Conditions: displacement of [3H]-Methylhistamine (2 nM) from rhesus H3 receptor membranes; Cheng-Prusoff
Method: (Genbank #AY231164). Stably transfected cultures were amplified in tissue culture flasks by standard tissue culture methods and induced to express rhesus H3 by exposure to 500 ng/ml tetracycline (Cellgro) for 24 hours. After induction, cells were dissociated from flasks utilizing Cell Stripper (Cellgro). Cells were centrifuged (1K×g, 5 min) and pellet frozen in an ethanol-dry ice bath to disrupt cell membranes. Frozen cell pellet was re-suspended in 5 mM HEPES (pH 7.4, Invitrogen) at 10 ml/1000 cm2 of harvested cells. The cell suspension was drawn through an 18 gauge needle (2-3×) followed by a 23 gauge needle (2-3×) to further disrupt cell membranes. The cell suspension was centrifuged (40K×g, 30 min). Cell membrane pellet was re-suspended in 5 mM HEPES (pH 7.4, Invitrogen) at a final protein concentration of 10 mg/ml. Rhesus H3 membranes were stored under liquid nitrogen prior to use in [3H]-Methylhistamine and GTPγS radioligand binding assays.
Rhesus H3 radioligand binding assay was performed using rhesus H3 receptor membranes (prepared as described above), [3H]-Methylhistamine (Perkin Elmer) and WGA SPA beads (wheat germ agglutinin scintillation proximity assay) beads (Amersham). The assay was performed in 96-well Opti-Plates (Packard). Each reaction contained 50 μl rhesus H3 membranes (20-30 μg total protein), 50 μl WGA SPA beads (0.1 μg) and 50 μl of 83 Ci/mmol [^3H]-Methylhistamine (final concentration 2 nM) and 50 μl of tested compound. The compounds of this invention and/or vehicle were diluted with binding buffer from 10 mM DMSO stocks. Assay plates were sealed with TopSeal (Perkin Elmer) and mixed on shaker (25° C., 1 hour). Assay plates were read on TopCount scintillation counter (Packard). Results were analyzed by Hill transformation and Ki values were determined by Cheng-Prusoff equation.

Sequence of rhesus (Macacca Mulatta) H3 receptor (Q865E1 1-445): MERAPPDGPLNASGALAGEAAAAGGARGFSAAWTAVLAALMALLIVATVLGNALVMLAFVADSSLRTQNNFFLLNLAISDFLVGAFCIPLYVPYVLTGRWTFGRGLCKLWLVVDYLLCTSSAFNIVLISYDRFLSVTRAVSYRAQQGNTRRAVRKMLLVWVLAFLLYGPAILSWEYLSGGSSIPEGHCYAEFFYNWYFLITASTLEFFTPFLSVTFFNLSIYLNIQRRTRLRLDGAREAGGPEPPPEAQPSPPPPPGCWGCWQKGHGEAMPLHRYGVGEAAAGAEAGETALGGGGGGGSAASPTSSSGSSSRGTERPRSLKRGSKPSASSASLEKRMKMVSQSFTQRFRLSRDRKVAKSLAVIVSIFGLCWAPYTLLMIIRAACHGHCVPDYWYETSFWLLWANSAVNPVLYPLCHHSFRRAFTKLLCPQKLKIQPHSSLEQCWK

SMILES	Ki
C[C@H]1CCCN1C1CC[C@H](c2ccc(NC(=O)OCc3ccccc3)cc2)C1 (mixture of isomers) [Intermediate (13), {4-[(S)-3-((S)-2-Methyl-pyrrolidin-1-yl)-cyclopentyl]-phenyl}-carbamic acid benzyl ester]	37.4 nM
C[C@H]1CCCN1C1CC[C@H](c2ccc(N3CCC4(CCOCC4)C3=O)cc2)C1 (stereo partly drawn) [Example 1, 2-{4-[(S)-3-((S)-2-Methyl-pyrrolidin-1-yl)-cyclopentyl]-phenyl}-8-oxa-2-aza-spiro[4.5]decan-1-one]	11.9 nM
C[C@H]1CCCN1C1CC[C@H](c2ccc(N3CCC4(CCCCC4)C3=O)cc2)C1 (stereo partly drawn) [Example 2, 2-{4-[(S)-3-((S)-2-Methyl-pyrrolidin-1-yl)-cyclopentyl]-phenyl}-2-aza-spiro[4.5]decan-1-one]	12.8 nM
CC1CCCN1C1CC[C@H](c2ccc(N3CCCC4(CCN(C(=O)OC(C)(C)C)CC4)C3=O)cc2)C1 (some centres unmarked) [Example 3, 2-{4-[3-(2-Methyl-pyrrolidin-1-yl)-cyclopentyl]-phenyl}-1-oxo-2,9-diaza-spiro[5.5]undecane-9-carboxylic acid tert-butyl ester]	17.9 nM
CC1CCCN1C1CC[C@H](c2ccc(N3CCC4(CCC(O)CC4)C3=O)cc2)C1 (some centres unmarked) [Example 4, 8-Hydroxy-2-{4-[3-(2-methyl-pyrrolidin-1-yl)-cyclopentyl]-phenyl}-2-aza-spiro[4.5]decan-1-one]	75.2 nM
CC1CCCN1C1CC[C@H](c2ccc(N3CCC4(CCN(C(=O)OC(C)(C)C)CC4)C3=O)cc2)C1 (some centres unmarked) [Example 6, 2-{4-[3-(2-Methyl-pyrrolidin-1-yl)-cyclopentyl]-phenyl}-1-oxo-2,8-diaza-spiro[4.5]decane-8-carboxylic acid tert-butyl ester]	26.8 nM
CC1CCCN1C1CC[C@H](c2ccc(N3CCCC4(CCCC4)C3=O)cc2)C1 (some centres unmarked) [Example 7, 7-{4-[3-(2-Methyl-pyrrolidin-1-yl)-cyclopentyl]-phenyl}-7-aza-spiro[4.5]decan-6-one]	27.5 nM
CC1CCCN1C1CC[C@H](c2ccc(N3CCCC4(CCNCC4)C3=O)cc2)C1 (some centres unmarked) [Example 8, 2-{4-[3-(2-Methyl-pyrrolidin-1-yl)-cyclopentyl]-phenyl}-2,9-diaza-spiro[5.5]undecan-1-one hydrochloride]	6.07 nM
O=C1N(c2ccc([C@H]3CC[C@H](N4CCCC4)CC3)cc2)CCC12CCOCC2 [Example 9, 2-[4-(4-Pyrrolidin-1-yl-cyclohexyl)-phenyl]-8-oxa-2-aza-spiro[4.5]decan-1-one]	112 nM
C[C@@H]1CCCN1[C@H]1CC[C@H](c2ccc(N3CCC4(CCOCC4)C3=O)cc2)CC1 [Example 10, 2-{4-[4-((R)-2-Methyl-pyrrolidin-1-yl)-cyclohexyl]-phenyl}-8-oxa-2-aza-spiro[4.5]decan-1-one]	35.3 nM
C[C@H]1CCCCN1[C@H]1CC[C@H](c2ccc(N3CCC4(CCOCC4)C3=O)cc2)CC1 [Example 11, 2-{4-[4-((S)-2-Methyl-piperidin-1-yl)-cyclohexyl]-phenyl}-8-oxa-2-aza-spiro[4.5]decan-1-one]	39.4 nM
C[C@H]1CCCN1[C@H]1CC[C@H](c2ccc(N3CCC4(CCOCC4)C3=O)cc2)CC1 [Example 12, 2-{4-[4-((S)-2-Methyl-pyrrolidin-1-yl)-cyclohexyl]-phenyl}-8-oxa-2-aza-spiro[4.5]decan-1-one]	6.1 nM
CC(C)(C)OC(=O)N1CCC2(CC1)CCN(c1ccc([C@H]3CC[C@H](N4CCCC4)CC3)cc1F)C2=O [Example 13, 2-[2-Fluoro-4-(4-pyrrolidin-1-yl-cyclohexyl)-phenyl]-1-oxo-2,8-diaza-spiro[4.5]decane-8-carboxylic acid tert-butyl ester]	379 nM
CC(C)(C)OC(=O)N1CCC2(CC1)CCN(c1ccc([C@H]3CC[C@H](N4CCC4)CC3)cc1F)C2=O [Example 15, 2-[4-(4-Azetidin-1-yl-cyclohexyl)-2-fluoro-phenyl]-1-oxo-2,8-diaza-spiro[4.5]decane-8-carboxylic acid tert-butyl ester]	220 nM
C[C@H]1CCCN1[C@H]1CC[C@H](c2ccc(N3CCC4(CCNCC4)C3=O)c(F)c2)CC1 [Example 17, 2-{2-Fluoro-4-[4-((S)-2-methyl-pyrrolidin-1-yl)-cyclohexyl]-phenyl}-2,8-diaza-spiro[4.5]decan-1-one hydrochloride]	84.3 nM
C[C@@H]1CCCN1[C@H]1CC[C@H](c2ccc(N3CCC4(CCNCC4)C3=O)c(F)c2)CC1 [Example 18, 2-{2-Fluoro-4-[4-((R)-2-methyl-pyrrolidin-1-yl)-cyclohexyl]-phenyl}-2,8-diaza-spiro[4.5]decan-1-one hydrochloride]	11.3 nM
O=C1N(c2ccc([C@H]3CC[C@H](N4CCC4)CC3)cc2F)CCC12CCNCC2 [Example 19, 2-[4-(4-Azetidin-1-yl-cyclohexyl)-2-fluoro-phenyl]-2,8-diaza-spiro[4.5]decan-1-one hydrochloride]	82.2 nM
O=C1N(c2ccc([C@H]3CC[C@H](N4CCCC4)CC3)cc2F)CCC12CCNCC2 [Example 20, 2-[2-Fluoro-4-(4-pyrrolidin-1-yl-cyclohexyl)-phenyl]-2,8-diaza-spiro[4.5]decan-1-one hydrochloride]	137 nM
C[C@H]1CCCN1C1CC=C(c2ccc(NC(=O)OCc3ccccc3)c(F)c2)CC1 (stereo partly drawn) [Example 21, {2-Fluoro-4-[4-((S)-2-methyl-pyrrolidin-1-yl)-cyclohex-1-enyl]-phenyl}-carbamic acid benzyl ester]	6.88 nM
CC(=O)N1CCC(C(=O)Nc2ccc([C@H]3CCC(N4CCC[C@@H]4C)C3)cc2)CC1 (stereo partly drawn) [Example 22, 1-Acetyl-piperidine-4-carboxylic acid {4-[(S)-3-((S)-2-methyl-pyrrolidin-1-yl)-cyclopentyl]-phenyl}-amide]	118 nM
C[C@H]1CCCN1C1CC[C@H](c2ccc(NC(=O)c3cccs3)cc2)C1 (stereo partly drawn) [Example 23, Thiophene-2-carboxylic acid {4-[(S)-3-((S)-2-methyl-pyrrolidin-1-yl)-cyclopentyl]-phenyl}-amide]	46.5 nM
C[C@H]1CCCN1C1CC[C@H](c2ccc(NS(=O)(=O)c3ccc(F)cc3)cc2)C1 (stereo partly drawn) [Example 24, 4-Fluoro-N-{4-[(S)-3-((S)-2-methyl-pyrrolidin-1-yl)-cyclopentyl]-phenyl}-benzenesulfonamide]	12.4 nM
Cc1ccc(F)cc1C(=O)Nc1ccc([C@H]2CCC(N3CCC[C@@H]3C)C2)cc1 (stereo partly drawn) [Example 25, 5-Fluoro-2-methyl-N-{4-[(S)-3-((S)-2-methyl-pyrrolidin-1-yl)-cyclopentyl]-phenyl}-benzamide]	45.7 nM
Cc1noc(C)c1C(=O)Nc1ccc([C@H]2CCC(N3CCC[C@@H]3C)C2)cc1 (stereo partly drawn) [Example 26, 3,5-Dimethyl-isoxazole-4-carboxylic acid {4-[(S)-3-((S)-2-methyl-pyrrolidin-1-yl)-cyclopentyl]-phenyl}-amide]	6.01 nM
C[C@H]1CCCN1C1CC[C@H](c2ccc(NS(=O)(=O)C3CC3)cc2)C1 (stereo partly drawn) [Example 27, Cyclopropanesulfonic acid {4-[(S)-3-((S)-2-methyl-pyrrolidin-1-yl)-cyclopentyl]-phenyl}-amide]	34 nM
C[C@H]1CCCN1C1CC[C@H](c2ccc(NC(=O)C3CCOCC3)cc2)C1 (stereo partly drawn) [Example 28, Tetrahydro-pyran-4-carboxylic acid {4-[(S)-3-((S)-2-methyl-pyrrolidin-1-yl)-cyclopentyl]-phenyl}-amide]	33.7 nM
